Test results reported in patent US20250313553A1, “ANNULATED 2-AMINO-3-CYANO THIOPHENES AND DERIVATIVES FOR THE TREATMENT OF CANCER” (Boehringer Ingelheim Int'l GmbH Corp., priority 2021, published 2025).

What was measured:
[1] = test system: ERK phosphorylation in NCI-H358 (KRAS G12C); test: ERK phosphorylation assay (assay 1, NCI-H358); format: cell-based; conditions: Homo sapiens; NCI-H358, assay 1, 1 h incubation; read-out: IC50 H358 pERK
Description: Low IC50 values in this assay setting are indicative of high potency of the compounds according to the invention. […]
The cells are incubated for 1 h at room temperature and then incubated overnight in an incubator at 37° C. and 5% CO2 in a humidified atmosphere. 60 nL compound solution (10 mM DMSO stock solution) is then added using a Labcyte Echo 550 device. […] After 20 min of incubation at room temperature with shaking, 6 μL of each lysate sample is transferred to a 384-well Proxiplate and analyzed for pERK (Thr202/Tyr204) with the AlphaLISA SureFire Ultra pERK1/2 (Thr202/Tyr204) Assay Kit. 3 μL Acceptor Mix and 3 μL Donor Mix are added under subdued light and incubated for 2 h at room temperature in the dark, before the signal is measured on a PerkinElmer Envision HTS Multilabel Reader. The raw data are imported into and analyzed with the Boehringer Ingelheim proprietary software MegaLab (curve fitting based on the program PRISM, GraphPad Inc.).

KRAS G12V Ba/F3 cells = KRAS G12V Ba/F3 cells (Homo sapiens, UniProt P01116, G12V, cells depend on it); test: Ba/F3 proliferation assay, KRAS G12V; format: cell-based; conditions: 72 h, AlamarBlue, read-out: KRAS G12V Ba/F3 IC50
Description: To generate KRASG12-dependent Ba/F3 models, Ba/F3 cells are transduced with retroviruses containing vectors that harbor KRASG12 isoforms. Platinum-E cells (Cell Biolabs) are used for retrovirus packaging. Retrovirus is added to Ba/F3 cells. To ensure infection, 4 μg/mL polybrene is added and cells are spinfected. […] Cells with an infection efficiency of 10% to 20% are further cultivated and puromycin selection with 1 μg/mL is initiated. As a control, parental Ba/F3 cells are used to show selection status. Selection is considered successful when parental Ba/F3 cells cultures died. To evaluate the transforming potential of KRASG12 mutations, the growth medium is no longer supplemented with IL-3. Ba/F3 cells harboring the empty vector are used as a control. Approximately ten days before conducting the experiments, puromycin is left out.
All treatments are performed in technical duplicates. […] AlamarBlue™ (ThermoFisher), a viability stain, is added and fluorescence measured in the PerkinElmer Envision HTS Multilabel Reader. The raw data are imported into and analyzed with the Boehringer Ingelheim proprietary software MegaLab (curve fitting based on the program PRISM, GraphPad Inc.).

Caco-2 assay = format: in vitro ADME; conditions: human; for Papp A→B at 90 min, 10 μM: Caco-2, pH 7.4, apical to basolateral, read-out: Caco PappAB; for efflux ratio at 90 min, 10 μM: Caco-2, pH 7.4, efflux ratio PappBA/PappAB, read-out: Caco ER
Description: The assay provides information on the potential of a compound to pass the cell membrane, on the extent of oral absorption as well as on whether the compound is actively transported by uptake and/or efflux transporters. Permeability measurements across polarized, confluent Caco-2 cell monolayers grown on permeable filter supports (Corning, catalog #3391) are used. […] The receiver and donor compartments contain 0.25% bovine serum albumine (BSA) in assay buffer. […] After a pre-incubation of 25-30 min at 37° C., at predefined time points (0, 30, 60 and 90 min), samples were taken from the receiver and donor compartment, respectively. Concentrations of test compounds in samples were measured by HPLC/MS/MS, samples from the donor compartment were diluted 1:50 (v:v) with assay buffer, samples from receiver compartment were measured without dilution.
Apparent permeabilities in a-b (PappAB) and b-a (PappBA) directions are calculated according to the formula:
[formula] • Vrec [mL]: buffer volume in receiver compartment • Cdon [μmol/mL]: concentration of test compound in donor compartment at t=0 • ΔCrec: difference between concentrations of test compound in receiver compartment at start and end of incubation time • Δt: Incubation time • Vrec·ΔCrec/Δt [μmol/min]: Amount of compound transferred to receiver compartment per time • A [cm^2]: filter surface
Caco-2 efflux ratios (ER) are calculated as the ratio of PappBA/PappAB.

CYP3A4 = biological target: T1, CYP3A4 (Homo sapiens, UniProt P08684); test: Mechanism based inhibition of CYP3A4 assay (MBI 3A4); format: in vitro ADME; conditions: 25 uM, hydroxy-midazolam formation after 30 min preincubation relative to 0 min
T1 construct: assayed in human liver microsomes (0.02 mg/mL) with midazolam (15 μM) as a substrate; from tissue; host or cells: human liver microsomes
Description: The time dependent inhibition towards CYP3A4 is assayed in human liver microsomes (0.02 mg/mL) with midazolam (15 μM) as a substrate. The test compounds and water control (wells w/o test compound) are preincubated in presence of NADPH (1 mM) with human liver microsomes (0.2 mg/mL) at a concentration of 25 uM for 0 min and 30 min. After preincubation, the incubate is diluted 1:10 and the substrate midazolam is added for the main incubation (15 min). The main incubation is quenched with acetonitrile and the formation of hydroxy-midazolam is quantified via LC/MS-MS. The formation of hydroxy-midazolam from the 30 min preincubation relative to the formation from the 0 min preincubation is used as a readout. Values of less than 100% mean that the substrate midazolam is metabolized to a lower extent upon 30 min preincubation compared to 0 min preincubation. In general low effects upon 30 min preincubation are desired (corresponding to values close to 100%/not different to the values determined with water control).

KRAS (G12C) and SOS1 = biological target: T2, KRAS (G12C) and SOS1 (Homo sapiens, UniProt P01116, C118S/C51S/C80L/G12C); test: KRAS::SOS1 AlphaScreen binding assay, KRAS G12C
T2 construct: KRAS (G12C) 1-169, N-terminal 6His-tag for purification; 6His (N, cleaved yes)
Description: Low IC50 values in this assay setting are indicative of strong inhibition of protein-protein interaction between SOS1 and KRAS:
These assays measure the inhibitory effect of compounds on KRAS mutant protein-protein interactions using the Alpha Screen technology by Perkin Elmer.
For the chosen highest assay concentration of 100 μM, 150 nL of compound solution are transferred from a 10 mM DMSO compound stock solution. A series of eleven fivefold dilutions per compound are transferred to the assay plate, compound dilutions are tested in duplicates. DMSO are added as backfill to a total volume of 150 nL.
The assays run on a fully automated robotic system in a darkened room below 100 Lux. To 150 nl of compound dilution 10 μl of a mix including KRAS mutant protein, SOS1 (final assay concentrations see above) and GDP nucleotide (Sigma G7127; final assay concentration 10 μM) in assay buffer (1×PBS, 0.1% BSA, 0.05% Tween 20) are added into columns 1-24. After 30 minutes incubation time 5 μl of Alpha Screen bead mix in assay buffer are added into columns 1-23.
Plates are kept at room temperature in a darkened incubator. After an additional 60 minutes incubation time the signal is measured in a PerkinElmer Envision HTS Multilabel Reader using the AlphaScreen specs from PerkinElmer.
IC50 values are calculated and analyzed with Boehringer Ingelheim's MEGALAB IC50 application using a 4 parametric logistic model.

T1 sequence (P08684 whole entry): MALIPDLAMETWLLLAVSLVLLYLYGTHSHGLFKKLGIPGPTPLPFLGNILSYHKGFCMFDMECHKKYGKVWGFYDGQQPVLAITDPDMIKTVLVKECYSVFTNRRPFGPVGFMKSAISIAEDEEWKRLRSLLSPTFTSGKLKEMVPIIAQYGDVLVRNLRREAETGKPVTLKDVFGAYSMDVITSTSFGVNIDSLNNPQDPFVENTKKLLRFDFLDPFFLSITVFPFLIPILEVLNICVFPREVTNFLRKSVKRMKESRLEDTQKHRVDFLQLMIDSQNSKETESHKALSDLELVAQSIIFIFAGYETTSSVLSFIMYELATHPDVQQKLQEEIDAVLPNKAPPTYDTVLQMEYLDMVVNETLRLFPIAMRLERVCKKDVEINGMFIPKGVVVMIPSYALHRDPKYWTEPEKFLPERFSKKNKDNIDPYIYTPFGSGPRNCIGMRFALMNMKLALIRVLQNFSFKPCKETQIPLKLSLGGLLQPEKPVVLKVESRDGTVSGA
Chain of KRAS G12V Ba/F3 cells (P01116 whole entry G12V, canonical isoform): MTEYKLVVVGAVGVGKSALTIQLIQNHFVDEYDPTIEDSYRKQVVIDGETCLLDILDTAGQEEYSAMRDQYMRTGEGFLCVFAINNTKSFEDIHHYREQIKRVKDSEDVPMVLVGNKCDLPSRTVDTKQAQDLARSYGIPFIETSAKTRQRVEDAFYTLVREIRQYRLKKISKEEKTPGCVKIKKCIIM
T2 sequence (P01116 1-169 isoform P01116-2 G12C/C51S/C80L/C118S): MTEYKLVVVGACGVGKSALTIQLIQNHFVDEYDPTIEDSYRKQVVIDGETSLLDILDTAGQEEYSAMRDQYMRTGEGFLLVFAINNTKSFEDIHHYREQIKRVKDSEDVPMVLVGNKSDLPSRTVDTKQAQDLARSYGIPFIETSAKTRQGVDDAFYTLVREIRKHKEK

| SMILES | IC50 [1] [nM] | GI50 (KRAS G12V Ba/F3 cells) [nM] | Papp A→B at 90 min, 10 μM (Caco-2 assay) [×10⁻⁶ cm/s] | efflux ratio at 90 min, 10 μM (Caco-2 assay) | MBI 3A4 (CYP3A4) [%] | IC50 (KRAS (G12C) and SOS1) [nM] |
| --- | --- | --- | --- | --- | --- | --- |
| C[C@H]1CN(C)CCN1c1cccc(-c2noc([C@@]3(C)CCCc4sc(N)c(C#N)c43)n2)n1 [Example V-1] | 252 | 1440 | 25.6 | 0.7 | 65 | 31 |
| C[C@H]1CNCCN1c1nccc(-c2noc([C@@]3(C)CCCc4sc(N)c(C#N)c43)n2)n1 [Example V-4] | 130 | 1080 | 5 | 9.8 | 75 | 23 |
| C[C@H]1CN(C)CCN1c1nccc(-c2noc([C@@]3(C)CCCc4sc(N)c(C#N)c43)n2)n1 [Example V-7] | 137 | 1680 | 32.2 | 0.7 | 57 | 22 |
| C[C@H](Oc1ccnc(-c2noc([C@@]3(C)CCCc4sc(N)c(C#N)c43)n2)n1)[C@@H]1CCCN1C [Example V-11] | 7 |  | 13 |  |  |  |
| C[C@H]1CN(C)CCN1c1nccc(-c2cc([C@@]3(C)CCCc4sc(N)c(C#N)c43)on2)n1 [Example V-27] |  | 1690 | 14 | 0.5 | 71 | 24 |

Further compounds by falling GI50 (KRAS G12V Ba/F3 cells), results first:

| IC50 [1] [nM] | GI50 (KRAS G12V Ba/F3 cells) [nM] | Papp A→B at 90 min, 10 μM (Caco-2 assay) [×10⁻⁶ cm/s] | efflux ratio at 90 min, 10 μM (Caco-2 assay) | MBI 3A4 (CYP3A4) [%] | IC50 (KRAS (G12C) and SOS1) [nM] | SMILES |
| --- | --- | --- | --- | --- | --- | --- |
| 75 | 1070 | 1.2 | 19 |  | 15 | C[C@H]1CNCCCN1c1nccc(-c2noc([C@@]3(C)CCCc4sc(N)c(C#N)c43)n2)n1 [Example V-6] |
| 23 | 917 | 26.4 | 1.5 |  | 6 | COCCCN1CCCN(c2nccc(-c3noc([C@@]4(C)CCCc5sc(N)c(C#N)c54)n3)n2)[C@@H](C)C1 [Example V-2] |
| 38 | 640 | 21.4 | 1.7 | 55 | 8 | C[C@H]1CN(C)CCCN1c1nccc(-c2noc([C@@]3(C)CCCc4sc(N)c(C#N)c43)n2)n1 [Example V-5] |
| 55 | 443 | 20.9 | 1.3 |  | 9 | C[C@H](Oc1cccc(-c2noc([C@@]3(C)CCCc4sc(N)c(C#N)c43)n2)n1)[C@@H]1CCCN1C [Example V-8] |
| 12 | 361 | 11.3 | 3.2 | 65 | 7 | C[C@H](Oc1nccc(-c2noc([C@@]3(C)CCCc4sc(N)c(C#N)c43)n2)n1)[C@@H]1CCCN1C [Example V-10] |
| 12 | 76 | 27 | 0.9 | 49 | 5 | CC(C)N1CCCN(c2nccc(-c3noc([C@@]4(C)CCCc5sc(N)c(C#N)c54)n3)n2)[C@@H](C)C1 [Example V-9] |
